Experimental findings from PMC13397736, “LEP-AD: language embedding of proteins and attention to drugs predicts drug-target interactions” (Journal of Cheminformatics, 2026) are described below.

SMILES strings stand for the structures.

In this assay the target is Src kinase (Homo sapiens, UniProt P12931). Nature of the assay: ADP-Glo kinase assay, […] Src, […] ATP, peptide substrate. (In general: In ADP-Glo the light output rises with the ADP produced.)
Chain of Src kinase (P12931 2-536): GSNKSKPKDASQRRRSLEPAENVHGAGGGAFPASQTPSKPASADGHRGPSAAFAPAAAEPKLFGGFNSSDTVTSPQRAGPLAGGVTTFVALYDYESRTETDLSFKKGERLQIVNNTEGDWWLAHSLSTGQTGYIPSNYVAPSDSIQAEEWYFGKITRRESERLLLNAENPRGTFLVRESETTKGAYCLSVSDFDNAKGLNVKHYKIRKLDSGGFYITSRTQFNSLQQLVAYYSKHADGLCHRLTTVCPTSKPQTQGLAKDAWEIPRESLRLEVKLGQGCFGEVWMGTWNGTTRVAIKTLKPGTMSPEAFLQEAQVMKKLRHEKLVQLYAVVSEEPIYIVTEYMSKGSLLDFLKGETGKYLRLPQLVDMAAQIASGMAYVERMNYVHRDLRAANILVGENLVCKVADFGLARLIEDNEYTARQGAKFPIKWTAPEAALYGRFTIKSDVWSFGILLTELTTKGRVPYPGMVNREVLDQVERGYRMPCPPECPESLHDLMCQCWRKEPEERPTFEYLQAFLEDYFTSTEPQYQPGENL

The IC50 is the concentration that inhibits the measured activity by half. Read a high IC50 as weaker potency in that assay. For the compound `Cc1nc(Nc2ncc(C(=O)Nc3cc(NC(=O)c4cccc(C(F)(F)F)c4)ccc3C)s2)cc(N2CCN(CCO)CC2)n1` [UM-164], 323 nM corresponded to half-maximal inhibition (IC50).
